Measurements from US20230060873A1, “COMPOUNDS AND METHODS FOR FORMING ION CHANNELS IN BIOLOGICAL MEMBRANES” (Washington University, priority 2021, published 2023).

Assay: Planar lipid bilayer ion channel recordings
Type: biochemical
Procedure: Experiments in planar lipid bilayers were performed via a Nanion Orbit-mini planar bilayer system. The planar membranes were formed by painting a 25 mg/mL solution of lipids in n-nonane over the four 50 μm apertures on the chip. The lipids used were asolectin from soybean (Sigma-Aldrich) or a 3:1 w/w mix of 1-palmitoyl-2-oleoyl-sn-glycero-3-phosphoethanolamine (POPE) and 1-palmitoyl-2-oleoyl-sn-glycero-3-phospho-(1′-rac-glycerol) (POPG) (Avanti Polar lipids). The solutions tested were KCl solution (150 mM KCl, 10 mM HEPES, pH adjusted to 7.4 with KOH), NaCl solution (150 mM NaCl, 10 mM HEPES, pH adjusted to 7.4 with NaOH), and a concentrated KCl solution (500 mM KCl, 10 mM HEPES, pH adjusted to 7.4 with KOH). When the appropriate membrane formed, the voltage was clamped at 100 mV or −100 mV, and a stock solution of gramicidin D (Sigma-Aldrich) in DMSO or LEC10 in TFE were added up to the desired concentration. The tested concentration of gramicidin D was 1 nM and 2, 10, 100 and 200 μM were tested for LEC10. Two different temperatures were tested for each condition: 25 and 37° C. The current was recorded over 10 min for the gramicidin test and up to 1 h for the LEC10 test. The data was analyzed with Clampfit 10.7 software (Axon Instruments).
FIGS. 41 and 42 show the lipid bilayer recordings. Current through the asolectin planar lipid bilayer clamped at 100 mV was recorded in the presence of […] (FIG. 41) and 2 μM LEC10 (FIG. 42). In both cases, the solution was 150 mM KCl, 10 mM HEPES, pH 7.4. […] This lack of unitary channel formation, or even a carrier-like increase of the conductance, precludes an ionophore-like mechanism of ion transport.

CCCCCCCCCCN1CCOCCOCCN(CCCCCCCCCC)CCOCCOCC1 [LEC10, Didecyl diaza(18-crown-6)]
ion channel activity (2 μM, bilayer clamped at 100 mV, 150 mM KCl, 10 mM HEPES, pH 7.4): no ion channel activity was detected | ion channel activity (LEC10 10, 100 and 200 μM, KCl up to 500 mM or NaCl instead of KCl): no indication of ion channel activity
